Test results: ChEMBL document CHEMBL1201862, “PubChem BioAssay data set” (2004)
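Following 48 hours of exposure in 96-well plates, responses at five concentrations were used to interpolate endpoints linearly. GI50 = concentration required for 50% inhibition of growth.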 Active and inactive are the calls of the source. Rule as the data show it: active = GI50 up to about 1.1 µM and inactive = higher.

How the values were obtained:
Test in all cases: inhibition of tumour cell growth, NCI panel, 48 h
[1] = tested on: SW-620
[2] = tested on: HCC 2998
[3] = tested on: U-251
[4] = tested on: OVCAR-8
[5] = tested on: DLD-1
[6] = tested on: HOP-92
[7] = tested on: OVCAR-4
[8] = tested on: CCRF-CEM
[9] = tested on: A498
[10] = tested on: SK-MEL-5
[11] = tested on: SNB-75
[12] = tested on: NCI-H23
[13] = tested on: SF-295
[14] = tested on: UACC-257
[15] = tested on: UACC-62
[16] = tested on: K562
[17] = tested on: M14
[18] = tested on: HCT-116
[19] = tested on: SR

| SMILES | GI50 [1] | GI50 [2] | GI50 [3] | GI50 [4] | GI50 [5] | GI50 [6] | GI50 [7] | GI50 [8] | GI50 [9] | GI50 [10] | GI50 [11] | GI50 [12] | GI50 [13] | GI50 [14] | GI50 [15] | GI50 [16] | GI50 [17] | GI50 [18] | GI50 [19] |
| --- | --- | --- | --- | --- | --- | --- | --- | --- | --- | --- | --- | --- | --- | --- | --- | --- | --- | --- | --- |
| CN(C)C(=Nc1nc(N(C)C)s[s+]1)N(C)C | > 100 µM (inactive) | > 100 µM (inactive) | > 100 µM (inactive) | > 100 µM (inactive) | > 100 µM (inactive) | > 100 µM (inactive) | > 100 µM (inactive) | > 100 µM (inactive) | > 100 µM (inactive) | > 100 µM (inactive) | > 100 µM (inactive) | > 100 µM (inactive) | > 100 µM (inactive) | > 100 µM (inactive) | > 100 µM (inactive) | > 100 µM (inactive) | > 100 µM (inactive) | – | – |
| CCCCOP1(=O)C=C(C)C(=C(Cl)Cl)C(C)=C1 (stereo unspecified) | 3.98 µM (inactive) | 22.3 µM (inactive) | 6.97 µM (inactive) | 17.9 µM (inactive) | 16.2 µM (inactive) | 1.5 µM (inactive) | 23.8 µM (inactive) | 4.2 µM (inactive) | – | 3.84 µM (inactive) | 11.4 µM (inactive) | 12.4 µM (inactive) | 6.61 µM (inactive) | 5.43 µM (inactive) | 7.01 µM (inactive) | 3.85 µM (inactive) | 11.6 µM (inactive) | 2.3 µM (inactive) | 3.2 µM (inactive) |
| CC1(C)COC2(OC1)C1=NS(=O)(=O)CC13CCC2C3(C)C (stereo unspecified) | > 100 µM (inactive) | – | > 100 µM (inactive) | > 100 µM (inactive) | > 100 µM (inactive) | > 100 µM (inactive) | > 100 µM (inactive) | > 100 µM (inactive) | > 100 µM (inactive) | > 100 µM (inactive) | > 100 µM (inactive) | > 100 µM (inactive) | > 100 µM (inactive) | > 100 µM (inactive) | > 100 µM (inactive) | > 100 µM (inactive) | > 100 µM (inactive) | > 100 µM (inactive) | > 100 µM (inactive) |
| CCCCCCCCCCCCNC1(C)CNCCCNCCNCCCNC1 | 1.79 µM (inactive) | 1.79 µM (inactive) | 1.08 µM (active) | 1.55 µM (inactive) | 1.67 µM (inactive) | 1.85 µM (inactive) | 2.07 µM (inactive) | 1.38 µM (inactive) | – | 1.68 µM (inactive) | 1.73 µM (inactive) | 1.71 µM (inactive) | 1.51 µM (inactive) | 1.76 µM (inactive) | 1.82 µM (inactive) | 1.89 µM (inactive) | 1.79 µM (inactive) | 1.32 µM (inactive) | 1.61 µM (inactive) |
| OC1(C23CC4CC(CC(C4)C2)C3)CSCC1(O)C12CC3CC(CC(C3)C1)C2 (stereo unspecified) | > 100 µM (inactive) | > 100 µM (inactive) | – | > 100 µM (inactive) | > 100 µM (inactive) | > 100 µM (inactive) | > 100 µM (inactive) | > 10 µM (inactive) | – | > 100 µM (inactive) | > 100 µM (inactive) | > 100 µM (inactive) | > 100 µM (inactive) | > 100 µM (inactive) | 70.6 µM (inactive) | > 100 µM (inactive) | > 100 µM (inactive) | > 100 µM (inactive) | > 100 µM (inactive) |
| COC(=O)/C(=C/CC(N=C(c1ccccc1)c1ccccc1)C(=O)OC)N=C(c1ccccc1)c1ccccc1 (stereo unspecified) | > 100 µM (inactive) | > 100 µM (inactive) | > 100 µM (inactive) | > 100 µM (inactive) | > 100 µM (inactive) | – | > 100 µM (inactive) | > 100 µM (inactive) | – | > 100 µM (inactive) | 12.4 µM (inactive) | > 100 µM (inactive) | > 100 µM (inactive) | > 100 µM (inactive) | > 100 µM (inactive) | > 100 µM (inactive) | > 100 µM (inactive) | > 100 µM (inactive) | > 100 µM (inactive) |
| Cn1nc2ccccc2cc1=O | > 100 µM (inactive) | > 100 µM (inactive) | > 100 µM (inactive) | > 100 µM (inactive) | > 100 µM (inactive) | > 100 µM (inactive) | > 100 µM (inactive) | > 100 µM (inactive) | > 100 µM (inactive) | > 100 µM (inactive) | 59.2 µM (inactive) | > 100 µM (inactive) | > 100 µM (inactive) | > 100 µM (inactive) | > 100 µM (inactive) | > 100 µM (inactive) | > 100 µM (inactive) | > 100 µM (inactive) | – |
| COc1ccc(/C(=N/NC(N)=O)C(c2ccc(OC)cc2)C2C(=O)Oc3ccccc32)cc1 (stereo unspecified) | > 100 µM (inactive) | > 100 µM (inactive) | > 100 µM (inactive) | > 100 µM (inactive) | > 100 µM (inactive) | 75 µM (inactive) | > 100 µM (inactive) | > 100 µM (inactive) | – | > 100 µM (inactive) | > 100 µM (inactive) | > 100 µM (inactive) | > 100 µM (inactive) | > 100 µM (inactive) | > 100 µM (inactive) | > 100 µM (inactive) | > 100 µM (inactive) | > 100 µM (inactive) | > 100 µM (inactive) |
| N#CC1=C(c2ccccc2)NN(Cc2ccccc2)C(c2ccc(Cl)cc2)CC1=O (stereo unspecified) | 20.2 µM (inactive) | – | 17.3 µM (inactive) | – | 15.7 µM (inactive) | 16.3 µM (inactive) | 20.9 µM (inactive) | 7.89 µM (inactive) | 24.8 µM (inactive) | 15.6 µM (inactive) | 18.3 µM (inactive) | 20.1 µM (inactive) | 27.5 µM (inactive) | 37.8 µM (inactive) | – | – | – | 18.7 µM (inactive) | 20.6 µM (inactive) |
| O=C1C=C(Nc2ccccc2C(=O)CC(=O)C(=O)Nc2cccc([N+](=O)[O-])c2)c2ccccc2C1=O | 25.6 µM (inactive) | > 100 µM (inactive) | 32.4 µM (inactive) | 28 µM (inactive) | 21.9 µM (inactive) | 37.1 µM (inactive) | 26.9 µM (inactive) | 3.3 µM (inactive) | > 100 µM (inactive) | 12.9 µM (inactive) | 64.7 µM (inactive) | 26.9 µM (inactive) | – | 27.2 µM (inactive) | 26.6 µM (inactive) | 17.7 µM (inactive) | 41.5 µM (inactive) | 20.7 µM (inactive) | – |
| Cc1ccc2[nH]c3c(C)c4c(c(C)c3c2c1)CN(C)C=C4 | 0.281 µM (active) | 1.52 µM (inactive) | 0.271 µM (active) | 0.444 µM (active) | 1.44 µM (inactive) | 1.07 µM (active) | 1.66 µM (inactive) | – | – | 1.38 µM (inactive) | 0.75 µM (active) | 0.735 µM (active) | 0.423 µM (active) | 2.53 µM (inactive) | 1.62 µM (inactive) | 1.42 µM (inactive) | 3.9 µM (inactive) | 2.32 µM (inactive) | 1.61 µM (inactive) |
| CC1(C)CCC[C@@]2(C)C1CC[C@H]1CC(O)C3(C)CCC12C3 (stereo partly specified) | 17.1 µM (inactive) | 19.8 µM (inactive) | 18.2 µM (inactive) | 18.5 µM (inactive) | 17.1 µM (inactive) | 15.6 µM (inactive) | 18.1 µM (inactive) | 26.4 µM (inactive) | – | 17.5 µM (inactive) | 22.9 µM (inactive) | 18.7 µM (inactive) | – | 18.2 µM (inactive) | 15.8 µM (inactive) | 32.1 µM (inactive) | 17.1 µM (inactive) | 17.3 µM (inactive) | 21.3 µM (inactive) |
